Here are results for 1 compound from patent US20100144853A1, “NOVEL COMBINED ADMINISTRATION” (priority 2008, published 2010).

What all share (format): in vitro ADME
Data set [1] can be described thus: Stability of COMPOUND A in human intestinal fluids, Procedure D (in solution), fasted. Particulars: fasted intestinal fluid. The method, then:
(§1) Procedure D (COMPOUND A and COMPOUND B in Solution):
Fasted Intestinal Fluids: the fluids from 4 different subjects were collected with a naso-jejunal tube after fasting overnight and pooled.
(§2) 5 mg of thioisobutyric acid S-(2-{[1-(2-ethyl-butyl)-cyclohexanecarbonyl]-amino}-phenyl)ester (COMPOUND A) were dissolved in 50 μL ethanol and 950 μL mixed micelles solution containing Soybean lecithin/Sodium glycocholate (158/97 mg/mL) in water were added.
(§3) 3 mg of 1-(3-hexyl-4-oxo-oxetan-2-yl)tridecan-2-yl 2-formyl-amino-4-methyl-pentanoate (COMPOUND B) were dissolved in 1 mL of ethanol. 100 μL of this solution was diluted with 900 μL of FeSSIF concentrate (10×).
(§4) 100 μL of drug solution (stock D) were mixed with 100 μL of esterase inhibitor solution (stock E) and 800 μL of pro-FaSSIF were added.
(§5) 100 μL of premix (stock F) were mixed with 200 μL of drug solution (stock A).
(§6) 200 μL of premix (stock F) were mixed with 100 μL of drug solution (stock A). 315 μL of intestinal fluids (fasted and stimulated) were pre-heated at 37° C. for about 5 min. At time zero, 35 μL of premix solutions were added, i.e. either stock A, stock G, stock H or stock F, to obtain 50 μg/mL of COMPOUND A and final concentrations of COMPOUND B of 0, 1, 2 or 3 μg/mL. The samples were incubated at 37° C. while gently stirring. The reaction was stopped after 2 min or after 10 min by dilution of 1 part of the reaction mixture with 3 parts of isopropanol and the resulting mixture was centrifuged for 5 min at 5′000 rpm. The supernatant was analyzed by HPLC.

In data set [2] the test system is Lipase from Hog Pancreas. Kind of data set: Stability of COMPOUND A with Lipase, Procedure A (premix of Lipase and COMPOUND B, then COMPOUND A). Particulars: 10 min, 0.55 mg/mL (11 U/mL) Lipase. The protocol:
240 mg Lipase (Lipase from Hog Pancreas, 20.6 U/mg Lipase, CAS No. 9001-62-1, Fluka, Art. No. 62300) were weighed into a vial and dissolved by stirring in 10 mL phosphate buffered saline solution pH 6.5. Any undissolved material was removed by centrifugation during 5 min at 5000 rpm. The supernatant was used for the experiments and diluted with PBS to obtain the Lipase at the final concentration of 0.55 mg/mL.
Procedure A (Premix of Lipase and COMPOUND B, Followed by Addition of Compound A):
1600 μL of Lipase in phosphate buffered saline solution (from stock C) to obtain a final enzyme concentration of 0.55 mg/mL) were mixed with 200 μL of COMPOUND B (stock B) and pre-incubated during 5 min at 37° C. At time zero 200 μL of drug solution (stock A) were added. The mixture was incubated at 37° C. After 10 min, the reaction was stopped by dilution of one part of the mixture with 3 parts of isopropanol.

The test system of data set [3] is Lipase from Hog Pancreas. Kind of data set: Stability of COMPOUND A with Lipase, Procedure B' (as B, lower COMPOUND B concentrations). To be noted: after 10 min incubation, 0.55 mg/mL (11 U/mL) Lipase. The method, then:
100 μL of drug solution (stock A) were mixed with 0, 12, 25 or 50 μL esterase inhibitor solution (stock B) and 100, 88, 75 or 50 μL of FeSSIF concentrate (Lecithin37.5 mM and Sodium taurocholate 150 mM) were added to make up 200 μL of a solution with COMPOUND B concentrations of 0, 12, 25 or 50 μg/mL. At time zero, 800 μL of Lipase in phosphate buffered saline solution (from stock C to obtain final enzyme concentrations of 0.55 mg/mL) were added. The reaction mixture was incubated at 37° C. and stopped after 10 minutes by diluting one part of the reaction mixture with 3 parts Isopropanol.
Procedure B′ (Premix of COMPOUND B and COMPOUND A, Followed by Addition of Lipase):
The tests were repeated as described under procedure B but with final COMPOUND B concentrations of 0, 3, 6, 12 μg/ml.

A short description of data set [4]: Stability of COMPOUND A in human intestinal fluids, Procedure D (in solution), stimulated. To be noted: stimulated intestinal fluid. The protocol: as §1
Stimulated Intestinal Fluids: the fluids from 3 different subjects were collected after fasting overnight with a nasojejunal tube and pooled. For the stimulation, twenty minutes before the beginning of the collection, volunteers were provided with chewing-gums and were asked to chew over a 15 minutes period, maintaining the taste by replacing the sticks of gum approximately every 2 minutes.
as §2, §3, §4, §5, §6

The mark [5] stands for this setting: COMPOUND B 0 μg/mL, 2 min, theoretical 50 μg/mL.

Regarding `CCC(CC)CC1(C(=O)Nc2ccccc2SC(=O)C(C)C)CCCCC1` [COMPOUND A, thioisobutyric acid S-(2-{[1-(2-ethyl-butyl)-cyclohexanecarbonyl]-amino}-phenyl)ester], the “Concentration of COMPOUND A” value turned out to be 480 ng/mL in data set [1] (setting [5]); 480 ng/mL in data set [1] (COMPOUND B 0 μg/mL, 10 min); 18000 ng/mL in data set [1] (COMPOUND B 1 μg/mL, 2 min); 1580 ng/mL in data set [1] (COMPOUND B 1 μg/mL, 10 min); 36910 ng/mL in data set [1] (COMPOUND B 2 μg/mL, 2 min); 28590 ng/mL in data set [1] (COMPOUND B 2 μg/mL, 10 min). The “Concentration of COMPOUND A” value in data set [1] (COMPOUND B 3 μg/mL, 2 min) came out at 43720 ng/mL; in data set [1] (COMPOUND B 3 μg/mL, 10 min), 37240 ng/mL; with Lipase from Hog Pancreas [2] (COMPOUND B 0 μg/mL) it was 14700 ng/mL; with Lipase from Hog Pancreas [2] (COMPOUND B 50 μg/mL), 46400 ng/mL; in the data set on Lipase from Hog Pancreas [2] (COMPOUND B 100 μg/mL) it was 48200 ng/mL; with Lipase from Hog Pancreas [3] (COMPOUND B 0 μg/ml), 14200 ng/mL. Further, the “Concentration of COMPOUND A” value is 45900 ng/mL in the data set on Lipase from Hog Pancreas [3] (COMPOUND B 3 μg/ml); 46500 ng/mL with Lipase from Hog Pancreas [3] (COMPOUND B 6 μg/ml); 45700 ng/mL in the data set with Lipase from Hog Pancreas [3] (COMPOUND B 12 μg/ml); 480 ng/mL in data set [4] (setting [5]); 480 ng/mL in data set [4] (COMPOUND B 0 μg/mL, 10 min); 26060 ng/mL in data set [4] (COMPOUND B 1 μg/mL, 2 min). Besides, the “Concentration of COMPOUND A” value in data set [4] (COMPOUND B 1 μg/mL, 10 min) was found to be 2760 ng/mL; in data set [4] (COMPOUND B 2 μg/mL, 2 min), 38920 ng/mL; in data set [4] (COMPOUND B 2 μg/mL, 10 min), 24930 ng/mL; in data set [4] (COMPOUND B 3 μg/mL, 2 min), 46910 ng/mL; in data set [4] (COMPOUND B 3 μg/mL, 10 min), 40480 ng/mL.
